According to patent US12324893B2, “Triptan microporation delivery system” (PassPort Technologies, Inc., priority 2019, dated 2025):

What was measured:
[1] = Administration route study in hairless rats (Example 4); format: in vivo; details: for AUC / Cmax / Tmax: rat, blood
Protocol: (§1) Hairless rats were used as experimental animals. After oral administration of a drug solution (2.0 ml) containing 2.0 mg of zolmitriptan, blood was collected at a desired time, each medicinal component was extracted according to a conventional method, then blood concentration was quantified by high performance liquid chromatography (LC-MS/MS).
as §1, with “intravenous” for “oral”, “(10 μl)” for “(2.0 ml)”, “2” for “2.0”
as §1, with “intravenous” for “oral”, “(200 μl)” for “(2.0 ml)”, “2” for “2.0”
Hairless rats were used as experimental animals. A drug patch was affixed on the flank side of skin of experimental animals that had undergone microporation treatment under the desired conditions. In this study, microporation condition of transdermal microporation was 400 pores/cm^2, 5.2 mJ/filament. The administration side was 1 cm^2. During the period where the patch was affixed, and after it had adhered, blood was collected at a desired time, each medicinal component was extracted according to a conventional method, then blood concentration was quantified by high performance liquid chromatography (LC-MS/MS). A Patch formulation of this study was 2 mg Zolmitriptan, sucrose 0.5 mg, AA 4 mg, 1 cm^2 non-woven matrix (EH-1212, WHC=4 mg/cm^2),
The given bioavailability of Table 5 is absolute bioavailability against IV injection.

[2] = Pain by poration (Examples 7-9); format: in vivo, guinea pigs
Protocol: (§2) This example describes various effects of filament density. To investigate the effect of filament density on PK profile and side effects (pain by poration and skin irritation), these studies were conducted. The filament density mainly affects the area to be utilized for the transfer of body fluid and ingredients in between skin and patch. The range of filament density was 100 filaments/cm^2 to 400 filaments/cm^2, and the poration energy was from 3 to 4 mJ/filament.
(§3) This example describes various effects to heating energy. The poration energy is related to the pore shape such as depth and width.
(§4) This example describes the selection of a desirable filament array size. Assuming the higher dose than 2 mg dose with the conditions 400 filaments/cm^2 filament density and 4 or 5 mJ/filament energy, filament array size may need to be made bigger. The range of dose was 0.5 to 4 mg, and the range of filament array size was 1.0 to 2.0 cm^2.

[3] = Administration route study in hairless rats (Example 4); format: in vivo; details: Group 2: 2 mg zolmitriptan
skin = assay: Skin irritation at different poration conditions (Examples 7-9); format: in vivo, guinea pigs
Protocol: A skin irritation examination was performed following the patch removal. The skin irritation examination scale was an assessment of the skin directly under the matrix.
as §2, §3, §4

[4] = Group 1: 2 mg zolmitriptan, oral administration
[5] = Group 3: 2 mg zolmitriptan, intravenous injection
[6] = topical or ocular, Group 4: 2 mg zolmitriptan, transdermal microporation (400 pores/cm^2, 5.2 mJ/filament, 1 cm^2)
[7] = Table 17 #1: dose 0.50 mg, 4 mJ/filament, 1.0 cm^2, 400 filaments/cm^2
[8] = Table 17 # 2: dose 2.00 mg, 4 mJ/filament, 1.0 cm^2, 400 filaments/cm^2
[9] = Table 17 # 3: dose 3.00 mg, 4 mJ/filament, 1.0 cm^2, 400 filaments/cm^2
[10] = Table 17 # 4: dose 4.00 mg, 4 mJ/filament, 1.5 cm^2, 400 filaments/cm^2
[11] = Table 17 # 5: dose 4.00 mg, 4 mJ/filament, 2.0 cm^2, 400 filaments/cm^2
[12] = Table 17 # 6: dose 4.00 mg, 5 mJ/filament, 1.5 cm^2, 400 filaments/cm^2
[13] = rat, blood, inhaled or intranasal
[14] = Table 13 # 1: 100 filaments/cm^2, 3 mJ/filament, 1.0 cm^2, 2.00 mg patch
[15] = Table 13 # 2: 200 filaments/cm^2, 3 mJ/filament, 1.0 cm^2, 2.00 mg patch
[16] = Table 13 # 3: 400 filaments/cm^2, 3 mJ/filament, 1.0 cm^2, 2.00 mg patch
[17] = Table 13 # 4: 100 filaments/cm^2, 4 mJ/filament, 1.0 cm^2, 2.00 mg patch
[18] = Table 13 # 5: 200 filaments/cm^2, 4 mJ/filament, 1.0 cm^2, 2.00 mg patch
[19] = Table 13 # 6: 400 filaments/cm^2, 4 mJ/filament, 1.0 cm^2, 2.00 mg patch
[20] = Table 15 # 1: 400 filaments/cm^2, 2 mJ/filament, 1.0 cm^2, 2.00 mg patch
[21] = Table 15 # 2: 400 filaments/cm^2, 3 mJ/filament, 1.0 cm^2, 2.00 mg patch
[22] = Table 15 # 3: 400 filaments/cm^2, 4 mJ/filament, 1.0 cm^2, 2.00 mg patch
[23] = Table 15 # 4: 400 filaments/cm^2, 5 mJ/filament, 1.0 cm^2, 2.00 mg patch

CN(C)CCc1c[nH]c2ccc(C[C@H]3COC(=O)N3)cc12 [Zolmitriptan]
BA ([1]; Group 1: 2 mg zolmitriptan, oral administration, absolute bioavailability against IV injection): 11.4%
BA ([1]; Group 3: 2 mg zolmitriptan, intravenous injection, absolute bioavailability against IV injection (reference)): 100.0%
BA ([1]; Group 4: 2 mg zolmitriptan, transdermal microporation (400 pores/cm^2, 5.2 mJ/filament, 1 cm^2), absolute bioavailability against IV injection): 71.4%
AUC [1, 4]: 227 ng·h/mL
Cmax [1, 4]: 74 ng/mL
Tmax [1, 4]: 4.5 h
AUC [1, 5]: 2000 ng·h/mL
Cmax [1, 5]: 5020 ng/mL
Tmax [1, 5]: 0.05 h
Cmax [1, 6]: 577 ng/mL
Tmax [1, 6]: 0.63 h
AUC ([1]; topical or ocular, Group 4: 2 mg zolmitriptan, transdermal microporation (400 pores/cm^2, 5.2 mJ/filament, 1 cm^2; patch with sucrose 0.5 mg, AA 4 mg)): 1430 ng·h/mL
Pain by poration ± SD ([2]; Table 13 # 1: 100 filaments/cm^2, 3 mJ/filament, area 1.0 cm^2): 0.0 ± 0.0
Pain by poration ± SD ([2]; Table 13 # 2: 200 filaments/cm^2, 3 mJ/filament, area 1.0 cm^2): 0.6 ± 0.5
Pain by poration ± SD ([2]; Table 13 # 3: 400 filaments/cm^2, 3 mJ/filament, area 1.0 cm^2): 0.5 ± 0.6
Pain by poration ± SD ([2]; Table 13 # 4: 100 filaments/cm^2, 4 mJ/filament, area 1.0 cm^2): 0.8 ± 1.0
Pain by poration ± SD ([2]; Table 13 # 5: 200 filaments/cm^2, 4 mJ/filament, area 1.0 cm^2): 1.8 ± 0.4
Pain by poration ± SD ([2]; Table 13 # 6: 400 filaments/cm^2, 4 mJ/filament, area 1.0 cm^2): 1.8 ± 0.5
Pain by poration ± SD ([2]; Table 15 # 1: 400 filaments/cm^2, 2 mJ/filament, area 1.0 cm^2): 0.3 ± 0.5
Pain by poration ± SD ([2]; Table 15 # 2: 400 filaments/cm^2, 3 mJ/filament, area 1.0 cm^2): 0.5 ± 0.6
Pain by poration ± SD ([2]; Table 15 # 3: 400 filaments/cm^2, 4 mJ/filament, area 1.0 cm^2): 1.8 ± 0.5
Pain by poration ± SD ([2]; Table 15 # 4: 400 filaments/cm^2, 5 mJ/filament, area 1.0 cm^2): 0.8 ± 1.0
Pain by poration ± SD [2, 7]: 0.5 ± 0.6
Pain by poration ± SD [2, 8]: 1.8 ± 0.5
Pain by poration ± SD [2, 9]: 0.3 ± 0.5
Pain by poration ± SD [2, 10]: 2.3 ± 0.5
Pain by poration ± SD [2, 11]: 2.8 ± 0.5
Pain by poration ± SD [2, 12]: 2.8 ± 0.5
BA ([3]; intranasal administration, absolute bioavailability against IV injection): 12.0%
AUC [3, 13]: 239 ng·h/mL
Cmax [3, 13]: 127 ng/mL
Tmax [3, 13]: 2.25 h
Skin irritation relief ± SD (Days to recover to score 1) (skin; [14]): 0.0 ± 0.0 days
Skin irritation ± SD (Just after patch removal) (skin; [14]): 0.8 ± 0.3
Skin irritation relief ± SD (Days to recover to score 1) (skin; [15]): 1.8 ± 0.8 days
Skin irritation ± SD (Just after patch removal) (skin; [15]): 2.2 ± 0.4
Skin irritation relief ± SD (Days to recover to score 1) (skin; [16]): 2.8 ± 1.3 days
Skin irritation ± SD (Just after patch removal) (skin; [16]): 1.9 ± 0.3
Skin irritation relief ± SD (Days to recover to score 1) (skin; [17]): 1.8 ± 0.5 days
Skin irritation ± SD (Just after patch removal) (skin; [17]): 1.6 ± 0.3
Skin irritation relief ± SD (Days to recover to score 1) (skin; [18]): 3.0 ± 1.9 days
Skin irritation ± SD (Just after patch removal) (skin; [18]): 2.1 ± 0.7
Skin irritation relief ± SD (Days to recover to score 1) (skin; [19]): 3.2 ± 0.8 days
Skin irritation ± SD (Just after patch removal) (skin; [19]): 2.1 ± 0.3
Skin irritation relief ± SD (Days to recover to score 1) (skin; [20]): 2.3 ± 1.2 days
Skin irritation ± SD (Just after patch removal) (skin; [20]): 1.8 ± 0.3
Skin irritation relief ± SD (Days to recover to score 1) (skin; [21]): 2.8 ± 1.3 days
Skin irritation ± SD (Just after patch removal) (skin; [21]): 1.9 ± 0.3
Skin irritation relief ± SD (Days to recover to score 1) (skin; [22]): 3.2 ± 0.8 days
Skin irritation ± SD (Just after patch removal) (skin; [22]): 2.1 ± 0.3
Skin irritation relief ± SD (Days to recover to score 1) (skin; [23]): 2.6 ± 1.7 days
Skin irritation ± SD (Just after patch removal) (skin; [23]): 2.3 ± 0.3
Skin irritation relief ± SD (Days to recover to score 1) (skin; [7]): 2.5 ± 1.0 days
Skin irritation ± SD (Just after patch removal) (skin; [7]): 1.6 ± 0.5
Skin irritation relief ± SD (Days to recover to score 1) (skin; [8]): 3.2 ± 0.8 days
Skin irritation ± SD (Just after patch removal) (skin; [8]): 2.1 ± 0.3
Skin irritation relief ± SD (Days to recover to score 1) (skin; [9]): 3.0 ± 0.5 days
Skin irritation ± SD (Just after patch removal) (skin; [9]): 2.0 ± 0.0
Skin irritation ± SD (Just after patch removal) (skin; [10]): 2.1 ± 0.3
Skin irritation relief ± SD (Days to recover to score 1) (skin; [11]): 4.3 ± 0.9 days
Skin irritation ± SD (Just after patch removal) (skin; [11]): 2.0 ± 0.0
Skin irritation relief ± SD (Days to recover to score 1) (skin; [12]): 5.5 ± 1.9 days
Skin irritation ± SD (Just after patch removal) (skin; [12]): 1.9 ± 0.3
